Reference: ChEMBL document CHEMBL2434896, “Carbonic anhydrase inhibitors. Synthesis of heterocyclic 4-substituted pyridine-3-sulfonamide derivatives and their inhibition of the human cytosolic isozymes I and II and transmembrane tumor-associated isozymes IX and XII” (Eur J Med Chem, 2013)
Activity calls are given as the source filed them.

How the values were obtained:
[1] = system: 786-0; experiment: Growth inhibition of human 786-0 cells at 10 uM after 48 hrs by sulforhodamine B assay; assay type: functional
[2] = system: U-251; experiment: Growth inhibition of human U251 cells at 10 uM after 48 hrs by sulforhodamine B assay; assay type: functional; conditions: U-251, 48 h, read-out: GI
[3] = system: NCI-H23; experiment: Growth inhibition of human NCI-H23 cells at 10 uM after 48 hrs by sulforhodamine B assay; assay type: functional
[4] = system: SW-620; experiment: Growth inhibition of human SW620 cells at 10 uM after 48 hrs by sulforhodamine B assay; assay type: functional
[5] = system: SNB-75; experiment: Growth inhibition of human SNB75 cells at 10 uM after 48 hrs by sulforhodamine B assay; assay type: functional
[6] = system: HCT-116; experiment: Growth inhibition of human HCT116 cells at 10 uM after 48 hrs by sulforhodamine B assay; assay type: functional
[7] = system: SF-295; experiment: Growth inhibition of human SF295 cells at 10 uM after 48 hrs by sulforhodamine B assay; assay type: functional; conditions: SF-295, 48 h, read-out: GI
[8] = system: NCI/ADR-RES; experiment: Growth inhibition of human NCI-ADR-RES cells at 10 uM after 48 hrs by sulforhodamine B assay; assay type: functional
[9] = system: IGROV-1; experiment: Growth inhibition of human IGROV1 cells at 10 uM after 48 hrs by sulforhodamine B assay; assay type: functional; conditions: IGROV-1, 48 h, read-out: GI
[10] = system: MOLT-4; experiment: Growth inhibition of human MOLT4 cells at 10 uM after 48 hrs by sulforhodamine B assay; assay type: functional; conditions: MOLT-4, 48 h, read-out: GI
[11] = system: SK-OV-3; experiment: Growth inhibition of human SKOV3 cells at 10 uM after 48 hrs by sulforhodamine B assay; assay type: functional; conditions: SK-OV-3, 48 h, read-out: GI
[12] = system: DU-145; experiment: Growth inhibition of human DU145 cells at 10 uM after 48 hrs by sulforhodamine B assay; assay type: functional
[13] = system: TK-10; experiment: Growth inhibition of human TK10 cells at 10 uM after 48 hrs by sulforhodamine B assay; assay type: functional; conditions: TK-10, 48 h, read-out: GI
[14] = system: Hs-578T; experiment: Growth inhibition of human Hs 578T cells at 10 uM after 48 hrs by sulforhodamine B assay; assay type: functional
[15] = system: OVCAR-8; experiment: Growth inhibition of human OVCAR8 cells at 10 uM after 48 hrs by sulforhodamine B assay; assay type: functional
[16] = system: HL-60(TB); experiment: Growth inhibition of human HL-60(TB) cells at 10 uM after 48 hrs by sulforhodamine B assay; assay type: functional
[17] = system: NCI-H522; experiment: Growth inhibition of human NCI-H522 cells at 10 uM after 48 hrs by sulforhodamine B assay; assay type: functional
[18] = system: BT-549; experiment: Growth inhibition of human BT549 cells at 10 uM after 48 hrs by sulforhodamine B assay; assay type: functional
[19] = system: Malme-3M; experiment: Growth inhibition of human MALME-3M cells at 10 uM after 48 hrs by sulforhodamine B assay; assay type: functional; conditions: read-out: GI
[20] = system: SF-539; experiment: Growth inhibition of human SF539 cells at 10 uM after 48 hrs by sulforhodamine B assay; assay type: functional; conditions: SF-539, 48 h, read-out: GI
[21] = molecular target: Carbonic anhydrase 9 (Homo sapiens, UniProt Q16790); experiment: Inhibition of human carbonic anhydrase 9 after 15 mins by stopped flow CO2 hydration assay
[22] = system: HOP-62; experiment: Growth inhibition of human HOP62 cells at 10 uM after 48 hrs by sulforhodamine B assay; assay type: functional
[23] = system: SK-MEL-28; experiment: Growth inhibition of human SK-MEL-28 cells at 10 uM after 48 hrs by sulforhodamine B assay; assay type: functional, cell-based
[24] = Growth inhibition of human EKVX cells at 10 uM after 48 hrs by sulforhodamine B assay; assay type: functional; conditions: read-out: GI
[25] = system: A549; experiment: Growth inhibition of human A549/ATCC cells at 10 uM after 48 hrs by sulforhodamine B assay; assay type: functional; conditions: A549, 48 h, read-out: GI
[26] = system: NCI-H322M; experiment: Growth inhibition of human NCI-H322M cells at 10 uM after 48 hrs by sulforhodamine B assay; assay type: functional; conditions: read-out: GI
[27] = system: NCI-H226; experiment: Growth inhibition of human NCI-H226 cells at 10 uM after 48 hrs by sulforhodamine B assay; assay type: functional
[28] = system: MDA-MB-231; experiment: Growth inhibition of human MDA-MB-231 cells at 10 uM after 48 hrs by sulforhodamine B assay; assay type: functional
[29] = system: SN12C; experiment: Growth inhibition of human SN12C cells at 10 uM after 48 hrs by sulforhodamine B assay; assay type: functional
[30] = system: CCRF-CEM; experiment: Growth inhibition of human CCRF-CEM cells at 10 uM after 48 hrs by sulforhodamine B assay; assay type: functional; conditions: read-out: GI
[31] = system: UACC-62; experiment: Growth inhibition of human UACC62 cells at 10 uM after 48 hrs by sulforhodamine B assay; assay type: functional
[32] = system: COLO 205; experiment: Growth inhibition of human COLO205 cells at 10 uM after 48 hrs by sulforhodamine B assay; assay type: functional; conditions: COLO 205, 48 h, read-out: GI
[33] = system: MDA-MB-435; experiment: Growth inhibition of human MDA-MB-435 cells at 10 uM after 48 hrs by sulforhodamine B assay; assay type: functional
[34] = system: SNB-19; experiment: Growth inhibition of human SNB19 cells at 10 uM after 48 hrs by sulforhodamine B assay; assay type: functional
[35] = system: UO-31; experiment: Growth inhibition of human UO31 cells at 10 uM after 48 hrs by sulforhodamine B assay; assay type: functional; conditions: UO-31, 48 h, read-out: GI
[36] = system: CAKI-1; experiment: Growth inhibition of human CAKI-1 cells at 10 uM after 48 hrs by sulforhodamine B assay; assay type: functional; conditions: CAKI-1, 48 h, read-out: GI
[37] = system: PC-3; experiment: Growth inhibition of human PC3 cells at 10 uM after 48 hrs by sulforhodamine B assay; assay type: functional; conditions: PC-3, 48 h, read-out: GI
[38] = system: K562; experiment: Growth inhibition of human K562 cells at 10 uM after 48 hrs by sulforhodamine B assay; assay type: functional
[39] = system: SF-268; experiment: Growth inhibition of human SF268 cells at 10 uM after 48 hrs by sulforhodamine B assay; assay type: functional
[40] = system: SK-MEL-2; experiment: Growth inhibition of human SK-MEL-2 cells at 10 uM after 48 hrs by sulforhodamine B assay; assay type: functional
[41] = system: OVCAR-4; experiment: Growth inhibition of human OVCAR4 cells at 10 uM after 48 hrs by sulforhodamine B assay; assay type: functional
[42] = system: NCI-H460; experiment: Growth inhibition of human NCI-H460 cells at 10 uM after 48 hrs by sulforhodamine B assay; assay type: functional
[43] = system: UACC-257; experiment: Growth inhibition of human UACC257 cells at 10 uM after 48 hrs by sulforhodamine B assay; assay type: functional
[44] = system: HCC 2998; experiment: Growth inhibition of human HCC2998 cells at 10 uM after 48 hrs by sulforhodamine B assay; assay type: functional
[45] = system: LOX IMVI; experiment: Growth inhibition of human LOXIMVI cells at 10 uM after 48 hrs by sulforhodamine B assay; assay type: functional; conditions: read-out: GI
[46] = system: T47D; experiment: Growth inhibition of human T47D cells at 10 uM after 48 hrs by sulforhodamine B assay; assay type: functional; conditions: read-out: GI
[47] = system: HCT-15; experiment: Growth inhibition of human HCT15 cells at 10 uM after 48 hrs by sulforhodamine B assay; assay type: functional
[48] = system: MCF7; experiment: Growth inhibition of human MCF7 cells at 10 uM after 48 hrs by sulforhodamine B assay; assay type: functional
[49] = system: M14; experiment: Growth inhibition of human M14 cells at 10 uM after 48 hrs by sulforhodamine B assay; assay type: functional
[50] = system: KM12; experiment: Growth inhibition of human KM12 cells at 10 uM after 48 hrs by sulforhodamine B assay; assay type: functional
[51] = system: A498; experiment: Growth inhibition of human A498 cells at 10 uM after 48 hrs by sulforhodamine B assay; assay type: functional
[52] = system: ACHN; experiment: Growth inhibition of human ACHN cells at 10 uM after 48 hrs by sulforhodamine B assay; assay type: functional
[53] = system: OVCAR-3; experiment: Growth inhibition of human OVCAR3 cells at 10 uM after 48 hrs by sulforhodamine B assay; assay type: functional
[54] = system: RPMI-8226; experiment: Growth inhibition of human RPMI8226 cells at 10 uM after 48 hrs by sulforhodamine B assay; assay type: functional; conditions: RPMI-8226, 48 h, read-out: GI
[55] = system: SK-MEL-5; experiment: Growth inhibition of human SK-MEL-5 cells at 10 uM after 48 hrs by sulforhodamine B assay; assay type: functional; conditions: SK-MEL-5, 48 h, read-out: GI
[56] = system: SR; experiment: Growth inhibition of human SR cells at 10 uM after 48 hrs by sulforhodamine B assay; assay type: functional
[57] = system: HT-29; experiment: Growth inhibition of human HT-29 cells at 10 uM after 48 hrs by sulforhodamine B assay; assay type: functional; conditions: HT-29, 48 h, read-out: GI
[58] = system: OVCAR-5; experiment: Growth inhibition of human OVCAR5 cells at 10 uM after 48 hrs by sulforhodamine B assay; assay type: functional; conditions: OVCAR-5, 48 h, read-out: GI

CCCCc1c(C)nn(-c2ccncc2S(N)(=O)=O)c1C
13%: inhibition of growth at 10 µM [19]
48.6 nM: Ki [21]
6%: inhibition of growth at 10 µM [24]
15%: inhibition of growth at 10 µM [57]
9%: inhibition of growth at 10 µM [13]
5%: inhibition of growth at 10 µM [36]
2%: inhibition of growth at 10 µM [11] | inhibition of growth at 10 µM [45]
8%: inhibition of growth at 10 µM [2] | inhibition of growth at 10 µM [7] | inhibition of growth at 10 µM [30] | inhibition of growth at 10 µM [37] | inhibition of growth at 10 µM [58]
27%: inhibition of growth at 10 µM [54]
23%: inhibition of growth at 10 µM [35]
1%: inhibition of growth at 10 µM [32]
11%: inhibition of growth at 10 µM [46]
17%: inhibition of growth at 10 µM [10] | inhibition of growth at 10 µM [25]
16%: inhibition of growth at 10 µM [55]
7%: inhibition of growth at 10 µM [26]
inactive: growth inhibition (GI) [1] | growth inhibition (GI) [3] | growth inhibition (GI) [4] | growth inhibition (GI) [5] | growth inhibition (GI) [6] | growth inhibition (GI) [8] | growth inhibition (GI) [12] | growth inhibition (GI) [14] | growth inhibition (GI) [15] | growth inhibition (GI) [16] | growth inhibition (GI) [17] | growth inhibition (GI) [18] | growth inhibition (GI) [22] | growth inhibition (GI) [23] | growth inhibition (GI) [27] | growth inhibition (GI) [28] | growth inhibition (GI) [29] | growth inhibition (GI) [31] | growth inhibition (GI) [33] | growth inhibition (GI) [34] | growth inhibition (GI) [38] | growth inhibition (GI) [39] | growth inhibition (GI) [40] | growth inhibition (GI) [41] | growth inhibition (GI) [42] | growth inhibition (GI) [43] | growth inhibition (GI) [44] | growth inhibition (GI) [47] | growth inhibition (GI) [48] | growth inhibition (GI) [49] | growth inhibition (GI) [50] | growth inhibition (GI) [51] | growth inhibition (GI) [52] | growth inhibition (GI) [53] | growth inhibition (GI) [56]
3%: inhibition of growth at 10 µM [9] | inhibition of growth at 10 µM [20]
